# Target: T1, 11β-hydroxysteroid dehydrogenase type 1 (11β-HSD1), mouse isoform (Mus musculus, UniProt P50172)
# T1 construct: gene Hsd11b1; native 11β-HSD1 in differentiated C2C12 myotubes
# Assay: Cell-based cortisone to cortisol conversion in C2C12 myotubes, LCMS/MS
# T1 sequence (P50172 whole entry, canonical isoform): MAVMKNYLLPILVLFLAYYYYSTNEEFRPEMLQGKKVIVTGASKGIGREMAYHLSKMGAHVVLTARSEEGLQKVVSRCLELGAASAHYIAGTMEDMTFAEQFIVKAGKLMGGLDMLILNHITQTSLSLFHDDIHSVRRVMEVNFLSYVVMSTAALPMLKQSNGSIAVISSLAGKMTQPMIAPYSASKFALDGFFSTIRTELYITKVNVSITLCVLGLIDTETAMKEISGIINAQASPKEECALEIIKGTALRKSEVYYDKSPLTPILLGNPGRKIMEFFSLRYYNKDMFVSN
substance,measurement,value
CNX-010-49,IC50,64 nM
